18 molecules from PubChem BioAssay (NCI) can be followed below.

The structures appear in SMILES notation.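 Values below derive from 48-hour exposures of cells grown in 96-well plates, with endpoints linearly interpolated between the two concentrations bracketing the appropriate inhibition level. Here, GI50 denotes the concentration required for 50% inhibition of growth. TGI denotes the concentration required for complete inhibition of growth.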

Some test systems named below: CCRF-CEM leukemia; HOP-92 NSCLC; HS 578T breast; MCF7 breast; NCI-H23 lung; NCI/ADR-RES ovarian; OVCAR-3 ovarian; RXF 393 renal; SF-268 CNS; SK-MEL-5 melanoma.
What all share (test): NCI anticancer screen, dose series, 48 h

With `CN(C)Cc1cc(C(=O)/C=C/c2ccc(F)cc2)cc(CN(C)C)c1O`, the TGI with CCRF-CEM leukemia was 78 µM; with HOP-92 NSCLC it was 97.5 µM; with HS 578T breast, 86.9 µM; in the test on MCF7 breast, 42.4 µM; with NCI-H23 lung, more than 100 µM; with NCI/ADR-RES ovarian, 86.2 µM. Also, the TGI in the test with OVCAR-3 ovarian was found to be 50.9 µM; with RXF 393 renal it was 46.9 µM; in the test on SF-268 CNS, 63.9 µM; in the test with SK-MEL-5 melanoma it was 35.5 µM.

For the molecule `COc1ccc(/C=C2\CN(C)CC3C2=NN(c2ccccc2)C3c2ccc(OC)cc2)cc1` (stereo not given), the TGI in the test with CCRF-CEM leukemia, in the test with HOP-92 NSCLC, in the test with HS 578T breast, with MCF7 breast, in the test with NCI-H23 lung and in the test with NCI/ADR-RES ovarian was more than 100 µM throughout. Besides, the TGI in the test on OVCAR-3 ovarian is more than 100 µM; in the test with RXF 393 renal, 48.2 µM; with SF-268 CNS it was more than 100 µM; with SK-MEL-5 melanoma, more than 100 µM.

Turning to `C=CCn1c(-c2ccc(Cl)cc2Cl)csc1=Nc1c(C)n(C)n(-c2ccccc2)c1=O`, the TGI stood at 38.1 µM in the test with CCRF-CEM leukemia; 41.1 µM in the test with HOP-92 NSCLC; 44.7 µM in the test with HS 578T breast; 25.4 µM in the test on MCF7 breast; 23.4 µM with NCI-H23 lung; 34.2 µM in the test on NCI/ADR-RES ovarian. Besides, the TGI stood at 23.7 µM with OVCAR-3 ovarian, 32.1 µM in the test with RXF 393 renal, 33.4 µM in the test with SF-268 CNS and 13.1 µM in the test with SK-MEL-5 melanoma.

Turning to `CCCCN1C(=O)CS/C1=N/Nc1nc2c([nH]1)c(=O)n(C)c(=O)n2C`, the TGI in the test with CCRF-CEM leukemia is 54.8 µM; in the test on HOP-92 NSCLC, more than 100 µM; in the test on HS 578T breast, more than 100 µM; in the test on MCF7 breast, 31.3 µM; in the test with NCI-H23 lung, more than 100 µM; with NCI/ADR-RES ovarian, more than 100 µM. The TGI in the test with OVCAR-3 ovarian, with RXF 393 renal, with SF-268 CNS and in the test on SK-MEL-5 melanoma was more than 100 µM throughout.

Regarding `COc1cc(Nc2nc3ccccc3nc2C(C)C)cc(OC)c1OC`, the TGI in the test on CCRF-CEM leukemia, in the test on HOP-92 NSCLC, in the test with HS 578T breast, in the test with MCF7 breast, in the test on NCI-H23 lung and in the test on NCI/ADR-RES ovarian was more than 100 µM in each case. Besides, the TGI with OVCAR-3 ovarian, in the test with RXF 393 renal, with SF-268 CNS and in the test on SK-MEL-5 melanoma was more than 100 µM in each case.

With `CCn1c(=O)c2c3cc(OC(C)=O)ccc3oc2c2ccc(OC(C)=O)cc21`, the TGI with CCRF-CEM leukemia was more than 100 µM; in the test with HOP-92 NSCLC, 90.5 µM; with HS 578T breast, more than 100 µM; with MCF7 breast, more than 100 µM; in the test with NCI-H23 lung, more than 100 µM; in the test on NCI/ADR-RES ovarian, more than 100 µM. The TGI with OVCAR-3 ovarian, in the test on RXF 393 renal, in the test on SF-268 CNS and with SK-MEL-5 melanoma was more than 100 µM each time.

Take `O[C@H]1[C@H](O)[C@@H](Cn2nnc(-c3ccccc3)c2-c2ccccc2)OCO[C@@H]1Cn1nnc(-c2ccccc2)c1-c1ccccc1`: the TGI in the test with CCRF-CEM leukemia is more than 34.5 µM; with HOP-92 NSCLC, 8.23 µM; with HS 578T breast it was 33.2 µM; with MCF7 breast, 11.5 µM; in the test on NCI-H23 lung it was 26.2 µM; in the test with NCI/ADR-RES ovarian, more than 42.4 µM. Further, the TGI stood at 9.14 µM in the test with OVCAR-3 ovarian, 9.41 µM with RXF 393 renal, 25 µM with SF-268 CNS and 10.2 µM with SK-MEL-5 melanoma.

Take `O=C1CCCC[C@H]1C(O)CC1CC(=O)N(c2ccccc2)C(=O)C1` (stereo not given in full): the TGI in the test on CCRF-CEM leukemia, in the test with HOP-92 NSCLC, in the test with HS 578T breast, in the test on MCF7 breast, in the test with NCI-H23 lung and with NCI/ADR-RES ovarian was more than 100 µM throughout. For the same molecule, the TGI in the test with OVCAR-3 ovarian, in the test with RXF 393 renal, with SF-268 CNS and in the test with SK-MEL-5 melanoma was more than 100 µM in each case.

`CC[C@H]1C=CCC[C@@]2(C[C@@H]3CC[C@@H]4[C@H](C(=O)OCCCCCCCCCCCCCCCC(=O)N(CCCNC(C)=O)C[C@H](CCNC(C)=O)OC(C)=O)[C@]5(CCC[C@@H](C)O5)NC(=[N+]34)N2)O1`: the TGI in the test on CCRF-CEM leukemia was determined as 0.0469 µM; in the test on HOP-92 NSCLC, 0.32 µM; in the test with HS 578T breast, 1.72 µM; in the test with MCF7 breast, 1.37 µM; in the test on NCI-H23 lung, 2.93 µM; in the test with NCI/ADR-RES ovarian, 8.18 µM. Also, the TGI was 2.03 µM in the test on OVCAR-3 ovarian, 1.02 µM in the test with RXF 393 renal, 1.14 µM in the test with SF-268 CNS and 0.647 µM in the test with SK-MEL-5 melanoma.

As for `Oc1ccccc1-c1nn2c(CCCCCCCCc3nnc4sc(-c5ccccc5O)nn34)nnc2s1`, the TGI in the test on CCRF-CEM leukemia is 39.3 µM; in the test with HOP-92 NSCLC, more than 100 µM; with HS 578T breast, more than 100 µM; in the test with MCF7 breast it was more than 100 µM; in the test with NCI-H23 lung, more than 100 µM; in the test with NCI/ADR-RES ovarian, more than 100 µM. For the same molecule, the TGI was 64.3 µM with OVCAR-3 ovarian, more than 64.1 µM in the test with RXF 393 renal, more than 100 µM with SF-268 CNS and 64.8 µM with SK-MEL-5 melanoma.

As to `Cc1cc(C)c2c(=O)cc(-c3ccc4ccccc4c3)[nH]c2n1`, the TGI in the test on CCRF-CEM leukemia was 37.7 µM; with HOP-92 NSCLC, 78.8 µM; in the test with HS 578T breast, more than 100 µM; with MCF7 breast, more than 100 µM; in the test with NCI-H23 lung it was more than 100 µM; in the test with NCI/ADR-RES ovarian, more than 63.9 µM. Also, the TGI in the test on OVCAR-3 ovarian is more than 100 µM; in the test on RXF 393 renal, more than 100 µM; in the test with SF-268 CNS, more than 100 µM; in the test on SK-MEL-5 melanoma it was 9.42 µM.

Take `Cc1nnc([C@@]2(C)CC[C@H]3[C@@H](CCC4=CC(=O)CC[C@@]43C)[C@@H]2CC#N)o1`: the TGI in the test with CCRF-CEM leukemia, in the test with HOP-92 NSCLC, with HS 578T breast, with MCF7 breast, in the test on NCI-H23 lung and in the test on NCI/ADR-RES ovarian was more than 100 µM each time. The TGI in the test with OVCAR-3 ovarian, with RXF 393 renal, with SF-268 CNS and with SK-MEL-5 melanoma was more than 100 µM each time.

For `CC(=O)OC(=C(C#N)C#N)c1nccnc1C(C)=O`, the TGI in the test on CCRF-CEM leukemia, with HOP-92 NSCLC, in the test on HS 578T breast, in the test on MCF7 breast, in the test on NCI-H23 lung and with NCI/ADR-RES ovarian was more than 20 µM throughout. The TGI was more than 20 µM in the test on OVCAR-3 ovarian, 15.7 µM with RXF 393 renal, 7.67 µM in the test on SF-268 CNS and more than 20 µM in the test with SK-MEL-5 melanoma.

With `CC(=O)c1ccccc1NS(=O)(=O)c1ccc2nc(C)n(NS(=O)(=O)c3ccccc3C(C)=O)c(=O)c2c1`, the TGI in the test on CCRF-CEM leukemia, with HOP-92 NSCLC, with HS 578T breast, with MCF7 breast, with NCI-H23 lung and with NCI/ADR-RES ovarian was more than 100 µM each time. In addition, the TGI with OVCAR-3 ovarian, with RXF 393 renal, in the test with SF-268 CNS and in the test with SK-MEL-5 melanoma was more than 100 µM each time.

As for `CNc1nc2c(C)ccc3[nH]c(N(C)C)nc3c-2n1`, the TGI in the test with CCRF-CEM leukemia, in the test on HOP-92 NSCLC, in the test with HS 578T breast, in the test with MCF7 breast, with NCI-H23 lung and with NCI/ADR-RES ovarian was more than 100 µM each time. For the same molecule, the TGI with OVCAR-3 ovarian is more than 100 µM; with RXF 393 renal, more than 100 µM; in the test with SF-268 CNS it was more than 100 µM; with SK-MEL-5 melanoma, 50.3 µM.

Turning to `O=C1Nc2ccccc2/C1=C\c1c(Cl)nc2n1CCS2`, the TGI in the test on CCRF-CEM leukemia was more than 100 µM; in the test on HOP-92 NSCLC, more than 100 µM; in the test on HS 578T breast, 40.1 µM; in the test on MCF7 breast, 60.6 µM; in the test on NCI-H23 lung, 65.8 µM; with NCI/ADR-RES ovarian, 67.5 µM. For the same molecule, the TGI amounted to 68.7 µM with OVCAR-3 ovarian, 57.3 µM in the test with RXF 393 renal, 94.8 µM in the test on SF-268 CNS and 29.4 µM with SK-MEL-5 melanoma.

`C[C@]12CCc3sc(-c4cccc(F)c4)nc3C1=CC[C@@H]1[C@@H]2CC[C@]2(C)C(=O)CC[C@@H]12`: the GI50 in the test on CCRF-CEM leukemia was 2.45 µM; in the test on HOP-92 NSCLC, 2.44 µM; in the test on HS 578T breast, 3.86 µM; in the test with MCF7 breast, 1.78 µM; in the test on NCI-H23 lung it was 3.54 µM; with NCI/ADR-RES ovarian, 3.41 µM. The GI50 with OVCAR-3 ovarian was 1.92 µM; in the test on RXF 393 renal, 1.41 µM; in the test with SF-268 CNS it was 3.15 µM; with SK-MEL-5 melanoma, 4.05 µM. Besides, the TGI is 9.58 µM in the test on CCRF-CEM leukemia; 5.63 µM with HOP-92 NSCLC; more than 100 µM in the test with HS 578T breast; 4.26 µM in the test with MCF7 breast; 33.5 µM in the test with NCI-H23 lung; 57.5 µM in the test on NCI/ADR-RES ovarian. For the same molecule, the TGI in the test with OVCAR-3 ovarian was 3.79 µM; with RXF 393 renal, 2.94 µM; in the test with SF-268 CNS it was 18.9 µM; with SK-MEL-5 melanoma, 16.9 µM.

For `COc1ccc(-c2nc3cc(C(F)(F)F)ccc3n2CC2CCCN3CCCCC23)cc1` (stereo not given), the TGI in the test on CCRF-CEM leukemia is 31.4 µM; with HOP-92 NSCLC it was 27.9 µM; in the test with HS 578T breast it was 31.1 µM; with MCF7 breast, 25.9 µM; with NCI-H23 lung, 29 µM; in the test with NCI/ADR-RES ovarian it was 27.1 µM. Also, the TGI was 37.1 µM with OVCAR-3 ovarian, 33.8 µM with RXF 393 renal, 28.6 µM in the test on SF-268 CNS and 27.5 µM in the test with SK-MEL-5 melanoma.
